Reference: patent US20080221195A1, “1,2-DIARYLACETYLENE DERIVATIVES OF ACYLTRYPTOPHANOLS” (priority 2006, published 2008)

target: T1, human FSH receptor (Homo sapiens, UniProt P23945); assay: HTRF assay for measuring cAMP in cells (FSH-antagonistic effect); assay type: cell-based; details: hFSHR clone 16 cells (CHO cells stably transfected with the human FSH receptor), in the presence of 1e-9 mol/l hFSH, 37° C. for 2 h
T1 construct: expressed in transfected cells; host or cells: CHO cells (hFSHR clone 16)
T1 sequence (P23945 18-695): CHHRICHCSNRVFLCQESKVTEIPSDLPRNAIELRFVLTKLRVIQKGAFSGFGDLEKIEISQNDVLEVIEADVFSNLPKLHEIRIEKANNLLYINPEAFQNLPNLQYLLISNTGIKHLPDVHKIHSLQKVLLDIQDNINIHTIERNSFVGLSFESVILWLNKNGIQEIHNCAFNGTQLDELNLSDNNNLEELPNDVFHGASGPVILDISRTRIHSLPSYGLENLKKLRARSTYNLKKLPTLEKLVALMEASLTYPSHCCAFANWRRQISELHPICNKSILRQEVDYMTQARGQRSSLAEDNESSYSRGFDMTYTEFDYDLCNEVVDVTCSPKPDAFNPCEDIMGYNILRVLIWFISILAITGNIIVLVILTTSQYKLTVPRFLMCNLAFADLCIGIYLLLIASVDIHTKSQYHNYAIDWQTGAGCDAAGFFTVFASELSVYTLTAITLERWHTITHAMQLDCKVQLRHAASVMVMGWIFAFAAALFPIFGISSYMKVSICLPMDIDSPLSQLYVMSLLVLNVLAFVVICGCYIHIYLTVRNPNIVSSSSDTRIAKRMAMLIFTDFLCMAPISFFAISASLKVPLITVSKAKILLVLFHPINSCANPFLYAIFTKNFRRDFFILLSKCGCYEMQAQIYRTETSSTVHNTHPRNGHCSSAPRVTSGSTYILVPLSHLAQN
Method: HTRF Assay for Measuring cAMP in Cells
The method is based on a competitive immunoassay between native cAMP, which has been produced by the cells, and cAMP which is labelled with cAMPD2 conjugate. The tracer binding was visualized by a monoclonal antibody, anti-cAMP labelled with cryptate [HTRF=homogeneous time-resolved fluorescence].
The specific signal is inversely proportional to the cAMP concentration of the samples employed.
The 665 nm/620 nm fluorescence ratio was evaluated.
Materials used: 96-well plates for the tissue culture, 96-well plates with black edge and black base (e.g. Fluotrac 600 from Greiner), 96-well plates for the substance dilutions of polypropylene and cAMP Femtomolar (4000 wells Kit, CIS Bio International # 62AM5PEJ).
Reagent used: BSA (bovine serum albumin) Fraction V protease-free, IBMX (3-isobutyl-1-methylxanthine), hFSH (human follicle stimulating hormone), Triton X-100 analytical grade, potassium fluoride analytical grade, G 418 (Geneticin) and Accutase.
Buffer 1 (washing and testing buffer) contained PBS, 1 mM CaCl2, 1 mM MgCl2, 0.2% glucose; 0.1% BSA, 1 mM IBMX.
Buffer 2 (2× lysis buffer) contained 1% Triton X-100 in PBS (without CaCl2 and MgCl2).
Buffer 3 (assay buffer) contained 50 mM potassium phosphate buffer (pH 7.0); 800 mM potassium fluoride; 0.2% BSA (always added fresh).
On day 1, the cells were seeded in 96-well plates (3×10^4 cells per well hFSHR clone 16 cells (CHO cells stably transfected with the human FSH receptor in 150 μl of medium). The next day, test substance dilutions were made up. For this purpose, all the substances were diluted in ice-cold buffer 1 (with or without hFSH), and the substance dilutions were placed on ice until applied to the cells. The cell supernatant was then aspirated off, and the cells were washed 2× with 200 μl of buffer 1. The cells were treated with 60 μl of the appropriate substance concentrations at 37° C. for 2 h. The cells were then lysed with 60 μl of buffer 2 (put onto the supernatant) (on a plate shaker at RT for 30 min). The test conjugates (cAMP-D2 and anti-cAMP cryptate, CIS Bio) were diluted in buffer 3 in accordance with the manufacturers' information. The actual mixture for measurement was pipetted into a black 96-well plate (in each case 15 μl of the cell lysate diluted with 35 μl of buffer 1; firstly 25 μl of cAMP-D2 conjugate were pipetted and, after 10 min, 25 μl of the anti-cAMP cryptate were added). This is followed by incubation at RT for 90 minutes. The measurement was carried out in a PheraStar (BMG).
Dose-effect curve (hFSH) for the human receptor: 1e-8, 3e-9, 1e-9, 3e-10, 1e-10, 3e-11, 1e-11, 3e-12 mol/l.
The test substances were employed in suitable dilutions in the absence (test for agonism) and in the presence of 1e-9 mol/l hFSH.
The values of the well ratio were averaged and then entered directly in SigmaPlot versus the concentrations. The maximum and minimum values were determined for each plate, and half the difference is to be regarded as IC50.

Structure (SMILES) | IC50 [nM]
CC(C)Oc1ccc(C#Cc2cncc(C3=NNC(=O)C3)c2)cc1C(=O)N[C@@H](CO)Cc1c[nH]c2ccccc12 [Example 66, N—[(R)-1-Hydroxymethyl-2-(1H-indol-3-yl)-ethyl]-2-isopropoxy-5-[5-(5-oxo-4,5-dihydro-1H-pyrazol-3-yl)-pyridin-3-ylethynyl]-benzamide] | 10
O=C(N[C@@H](CO)Cc1c[nH]c2ccccc12)c1cccc(C#Cc2ccccn2)c1 [Example 160, N-[(R)-1-Hydroxymethyl-2-(1H-indol-3-yl)-ethyl]-3-pyridin-2-ylethynyl-benzamide] | 6000
CC(C)Oc1ccc(C#Cc2cccc(S(N)(=O)=O)c2)cc1C(=O)N[C@@H](CO)Cc1c[nH]c2ccccc12 [Example 123, N-[(R)-2-Hydroxy-1-(1H-indol-3-ylmethyl)-ethyl]-2-isopropoxy-5-(3-sulfamoyl-phenylethynyl)-benzamide] | 250
CC(C)Oc1ccc(C#Cc2ccc3oc(C(=O)O)cc3c2)cc1C(=O)N[C@@H](CO)Cc1c[nH]c2ccccc12 [Example 127, 5-{3-[(R)-1-Hydroxymethyl-2-(1H-indol-3-yl)-ethylcarbamoyl]-4-isopropoxy-phenylethynyl}-benzofuran-2-carboxylic acid] | 90
CC(C)Oc1ccc(C#Cc2ccc3c(c2)CCNC3=O)cc1C(=O)N[C@@H](CO)Cc1c[nH]c2ccccc12 [Example 154, N-[(R)-1-Hydroxymethyl-2-(1H-indol-3-yl)-ethyl]-2-isopropoxy-5-(1-oxo-1,2,3,4-tetrahydro-isoquinolin-6-ylethynyl)-benzamide] | 6
CC(C)Oc1ccc(C#Cc2cnc(N3CCOCC3)nc2)cc1C(=O)N[C@@H](CO)Cc1c[nH]c2ccccc12 [Example 145, N-[(R)-1-Hydroxymethyl-2-(1H-indol-3-yl)-ethyl]-2-isopropoxy-5-(2-morpholin-4-yl-pyrimidin-5-ylethynyl)-benzamide] | 300
CC(C)Oc1ccc(C#Cc2ccc3c(c2)C(=O)NCC3)cc1C(=O)N[C@@H](CO)Cc1c[nH]c2ccccc12 [Example 68, N-[(R)-1-Hydroxymethyl-2-(1H-indol-3-yl)-ethyl]-2-isopropoxy-5-(1-oxo-1,2,3,4-tetrahydro-isoquinolin-7-ylethynyl)-benzamide] | 30
CC(C)Oc1ccc(C#Cc2ccc3c(c2)C(=O)NC3=O)cc1C(=O)N[C@@H](CO)Cc1c[nH]c2ccccc12 [Example 156, 5-(1,3-Dioxo-2,3-dihydro-1H-isoindol-5-ylethynyl)-N-[(R)-1-hydroxymethyl-2-(1H-indol-3-yl)-ethyl]-2-isopropoxy-benzamide] | 15
CC(C)Oc1ccc(C#Cc2ccccc2C(F)(F)F)cc1C(=O)N[C@@H](CO)Cc1c[nH]c2ccccc12 [Example 119, N-[(R)-2-Hydroxy-1-(1H-indol-3-ylmethyl)-ethyl]-2-isopropoxy-5-(2-trifluoromethyl-phenylethynyl)-benzamide] | 25
CNC(=O)c1cccc(C#Cc2ccc(Cl)c(C(=O)NC(CO)Cc3c[nH]c4cc(F)ccc34)c2)c1 (stereo not drawn) [Example 83, 2-Chloro-N-[2-(6-fluoro-1H-indol-3-yl)-1-hydroxymethyl-ethyl]-5-(3-methylcarbamoyl-phenylethynyl)-benzamide] | 700
CC(C)Oc1ccc(C#Cc2ccc(N3CCNCC3)cc2)cc1C(=O)N[C@@H](CO)Cc1c[nH]c2ccccc12 [Example 140, N-[(R)-1-Hydroxymethyl-2-(1H-indol-3-yl)-ethyl]-2-isopropoxy-5-(4-piperazin-1-yl-phenylethynyl)-benzamide] | 3500
CC(C)Oc1ccc(C#Cc2ccc(C3(O)CCNCC3)cc2)cc1C(=O)N[C@@H](CO)Cc1c[nH]c2ccccc12 [Example 106, N-[(R)-1-Hydroxymethyl-2-(1H-indol-3-yl)-ethyl]-5-[4-(4-hydroxy-piperidin-4-yl)-phenylethynyl]-2-isopropoxy-benzamide] | 4000
